Entries after “also recorded” stand apart in the source; their conditions may differ.
Columns and labels:
shrews = assay: emesis, tirzepatide dose-response, shrews; assay type: in vivo, Suncus murinus; settings: 10, 100 and 1000 nmol/kg ip; 120 min; n = 9 per group
Text: Adult male shrews (S. murinus) weighing ~50 to 80 g (n = 84 total) were bred and maintained in the De Jonghe Lab (University of Pennsylvania). These animals were offspring from a colony previously maintained at the University of Pittsburgh Cancer Institute (C. Horn); a Taiwanese strain was derived from stock originally supplied by the Chinese University of Hong Kong. Shrews were singly housed in plastic cages (37.3 cm by 23.4 cm by 14 cm, Innovive) under a 12-hour/12-hour light/dark cycle in a temperature-controlled and humidity-controlled environment. Animal were fed ad libitum with a mixture of feline (75%, Laboratory Feline Diet 5003, Lab Diet) and mink food (25%, High Density Ferret Diet 5LI4, Lab Diet) and had ad libitum access to tap water except where noted.
We then evaluated the emetogenic actions of tirzepatide (10, 100, and 1000 nmol/kg) or vehicle in a different cohort of shrews (n = 9). The animals were habituated to the experimental conditions as described above. Treatments were separated by 7 days. Emetic episodes were recorded and quantified as described above.

rats = assay: food and kaolin consumption and body weight in rats (semaglutide, tirzepatide); assay type: in vivo, Sprague-Dawley rat
Text: Adult male Sprague-Dawley rats (Charles River) weighing ~250 to 270 g (n = 45) at arrival were housed under a 12-hour/12-hour light/dark cycle in a temperature-controlled and humidity-controlled vivarium. Rats were individually housed in hanging wire-bottom cage with ad libitum access to chow diet (Purina Lab Diet 5001) or, when noted, to high-fat/high-sugar diet (60% fat diet, 12492, Research Diets) and tap water and had ad libitum access to kaolin pellets (Research Diets, K50001). Rats were exposed to kaolin for at least 5 days prior to measuring kaolin consumption in pica testing. Kaolin intake and food consumption were measured simultaneously as the presence of kaolin in the cage, and its subsequent ingestion, has usually negligible effects on the hypophagic and body weight–lowering effects of the treatments.
GIPFA-085 (GIP-085), tirzepatide, and GLP-140 were designed and produced by Eli Lilly and Company. GIP-085, GLP-140, and semaglutide (Cayman Chemical) were dissolved in 40 mM tris-HCl buffer (pH 8) and 0.02% Tween 80. For the study in mice, all drugs were injected subcutaneously at a volume of 5 ml/kg of body weight. In rats, all drugs were injected intraperitoneally, at a volume of 1 ml/kg of body weight, except when noted. In shrews, all drugs were injected intraperitoneally at a volume of 10 ml/kg of body weight.
In two separate cohorts of rats (n = 10 per group, body weight ~ 460 ± 9 g), food consumption, kaolin intake, and body weight were measured after an intraperitoneal administration of vehicle, semaglutide (10 and 100 nmol/kg), or tirzepatide (10 and 100 nmol/kg), respectively. Food and kaolin intake were measured at 3, 6, 24, and 48 hours postinjection, and body weight was measured at 0, 24, and 48 hours. For each drug, a within-subject paradigm was used, with each round of injections separated by 7 days.

patients = settings: human, in vivo; cited from earlier work

Row | Compound | emesis (shrews) | kaolin intake (rats; 100 nmol/kg ip, n = 10 per group, vs vehicle) | kaolin consumption, semaglutide vs tirzepatide (rats; 100 nmol/kg ip, n = 10 to 20 per group) | kaolin consumption vs vehicle, tirzepatide (rats; tirzepatide, rats (dose not stated at this place)) | patients reporting nausea (patients) [%]
1 | CC[C@H](C)[C@H](NC(=O)[C@H](CC(C)C)NC(=O)[C@H](Cc1c[nH]c2ccccc12)NC(=O)[C@H](CCC(N)=O)NC(=O)[C@@H](NC(=O)[C@H](Cc1ccccc1)NC(=O)[C@H](C)NC(=O)[C@H](CCCCNC(=O)COCCOCCNC(=O)COCCOCCNC(=O)CC[C@H](NC(=O)CCCCCCCCCCCCCCCCCCC(=O)O)C(=O)O)NC(=O)[C@H](CCC(N)=O)NC(=O)[C@H](C)NC(=O)[C@@H](NC(=O)[C@H](CCCCN)NC(=O)[C@H](CC(=O)O)NC(=O)[C@H](CC(C)C)NC(=O)C(C)(C)NC(=O)[C@@H](NC(=O)[C@H](CO)NC(=O)[C@H](Cc1ccc(O)cc1)NC(=O)[C@H](CC(=O)O)NC(=O)[C@H](CO)NC(=O)[C@@H](NC(=O)[C@H](Cc1ccccc1)NC(=O)[C@@H](NC(=O)CNC(=O)[C@H](CCC(=O)O)NC(=O)C(C)(C)NC(=O)[C@@H](N)Cc1ccc(O)cc1)[C@@H](C)O)[C@@H](C)O)[C@@H](C)CC)[C@@H](C)CC)C(C)C)C(=O)N[C@@H](C)C(=O)NCC(=O)NCC(=O)N1CCC[C@H]1C(=O)N[C@@H](CO)C(=O)N[C@@H](CO)C(=O)NCC(=O)N[C@@H](C)C(=O)N1CCC[C@H]1C(=O)N1CCC[C@H]1C(=O)N1CCC[C@H]1C(=O)N[C@@H](CO)C(N)=O [tirzepatide] | complete absence of emesis; also recorded: no emesis occurred; also recorded: complete absence of any emetic episode | causes significant kaolin intake | induces less kaolin consumption in rats compared to equipotent doses of semaglutide | still significantly elevated compared to vehicle-treated animals | –
2 | AMG 133: bispecific molecule engineered by conjugating a GIPR antagonizing antibody with a GLP-1R agonist | – | – | – | – | 100
